Measurements as given in the NIST ThermoML archive (doi:10.1021/je060271a).

Conditions: 343.15 K, Liquid, Vibrating tube method

CCCC(=O)OCC(COC(=O)CCC)(COC(=O)CCC)COC(=O)CCC [pentaerythritol tetrabutyrate]
Conditions	mass density [kg/m3]
20390 kPa	1023.3
20430 kPa	1023.3
20478 kPa	1023.4
20526 kPa	1023.4
20575 kPa	1023.5
20625 kPa	1023.5
20668 kPa	1023.6
20718 kPa	1023.5
20770 kPa	1023.6
20824 kPa	1023.8
20870 kPa	1023.6
20921 kPa	1023.6
20960 kPa	1023.7
20996 kPa	1023.8
21033 kPa	1023.8
21064 kPa	1023.8
21100 kPa	1023.9
21137 kPa	1023.9
21173 kPa	1023.9
21204 kPa	1023.9
21241 kPa	1024
21279 kPa	1024
21316 kPa	1024.1
21354 kPa	1024.1
21386 kPa	1024.2
21424 kPa	1024.1
21463 kPa	1024.1
21495 kPa	1024.1
21534 kPa	1024.1
21572 kPa	1024.2
21612 kPa	1024.2
21645 kPa	1024.2
21684 kPa	1024.3
21723 kPa	1024.3
21763 kPa	1024.3
21802 kPa	1024.2
21835 kPa	1024.3
21876 kPa	1024.4
21916 kPa	1024.4
21956 kPa	1024.4
21990 kPa	1024.5
22030 kPa	1024.5
22071 kPa	1024.4
22112 kPa	1024.5
22146 kPa	1024.5
22187 kPa	1024.5
22220 kPa	1024.6
22268 kPa	1024.5
22310 kPa	1024.7
22344 kPa	1024.7
22387 kPa	1024.8
22429 kPa	1024.7
22472 kPa	1024.8
22507 kPa	1024.8
22548 kPa	1024.8
22591 kPa	1024.7
22634 kPa	1024.9
22670 kPa	1024.9
22714 kPa	1025
22756 kPa	1025
22799 kPa	1024.9
22842 kPa	1025
22886 kPa	1024.9
22970 kPa	1025.2
23014 kPa	1025.2
23052 kPa	1025.2
23097 kPa	1025.2
23142 kPa	1025.2
23180 kPa	1025.2
23226 kPa	1025.3
23270 kPa	1025.4
23317 kPa	1025.4
23355 kPa	1025.3
23400 kPa	1025.4
23447 kPa	1025.5
23494 kPa	1025.6
23535 kPa	1025.4
23582 kPa	1025.6
23630 kPa	1025.6
23676 kPa	1025.6
23716 kPa	1025.7
23763 kPa	1025.7
24094 kPa	1025.8
24137 kPa	1026
24186 kPa	1026
24236 kPa	1025.8
24278 kPa	1026.1
24328 kPa	1026
24379 kPa	1026
24431 kPa	1026.1
24484 kPa	1026.1
24528 kPa	1026.2
24578 kPa	1026.2
24621 kPa	1026.3
24665 kPa	1026.2
24708 kPa	1026.3
24745 kPa	1026.3
24788 kPa	1026.3
24833 kPa	1026.2
24870 kPa	1026.4
24915 kPa	1026.4
24959 kPa	1026.4
25004 kPa	1026.4
25049 kPa	1026.5
25086 kPa	1026.6
25132 kPa	1026.5
25176 kPa	1026.6
25223 kPa	1026.7
25270 kPa	1026.7
25308 kPa	1026.7
25354 kPa	1026.8
25401 kPa	1026.7
25439 kPa	1026.8
25486 kPa	1026.9
25532 kPa	1026.7
25579 kPa	1026.8
25625 kPa	1026.9
25665 kPa	1027
26228 kPa	1027.4
26277 kPa	1027.4
26328 kPa	1027.3
26378 kPa	1027.4
26422 kPa	1027.5
26476 kPa	1027.5
26521 kPa	1027.6
26574 kPa	1027.5
26957 kPa	1027.8
27040 kPa	1027.8
27084 kPa	1027.9
27121 kPa	1027.9
27166 kPa	1028
27211 kPa	1027.9
27248 kPa	1027.9
27293 kPa	1028
27331 kPa	1028.1
27416 kPa	1028.1
27462 kPa	1028.2
27508 kPa	1028.2
27548 kPa	1028.2
27598 kPa	1028.2
27639 kPa	1028.3
27688 kPa	1028.2
27761 kPa	1028.4
27799 kPa	1028.6
27832 kPa	1028.3
27872 kPa	1028.4
